Measurements from BindingDB's records for doi:10.1016/j.bmcl.2008.01.067 (Spot-Ea3857, 2008).
pEC50: −log10 of the molar value.

What follows are molecules tested against Peroxisome proliferator-activated receptor gamma (Homo sapiens) (UniProt P37231) (assay: Agonist activity at human PPARgamma at 100 uM by GAL4 transactivation assay relative to Rosiglitazone).

| pEC50 | SMILES |
| --- | --- |
| 7.43 | CCO[C@@H](Cc1ccc(OCCc2ccc(OS(C)(=O)=O)cc2)cc1)C(=O)O [(2S)-2-ethoxy-3-(4-{2-[4-(methanesulfonyloxy)phenyl]ethoxy}phenyl)propanoic acid] |
| 6.71 | COC(=O)C(Cc1ccc(OCCN2CCC(C)(C)c3cc(C(N=O)c4ccccc4)ccc32)cc1)C(=O)OC (centres undefined) [dimethyl 2-(4-(2-(6-((hydroxyimino)(phenyl)methyl)-4,4-dimethyl-3,4-dihydroquinolin-1(2H)-yl)ethoxy)benzyl)malonate] |
| 6.82 | COC(=O)C(Cc1ccc(OCCN2CCC(C)(C)c3cc(C(=O)c4ccccc4)ccc32)cc1)C(=O)OC [dimethyl 2-(4-(2-(6-benzoyl-4,4-dimethyl-3,4-dihydroquinolin-1(2H)-yl)ethoxy)benzyl)malonate] |
| 7.32 | CCOC(=O)C(Cc1ccc(OCCN2CCC(C)(C)c3cc(C(N=O)c4ccccc4)ccc32)cc1)OCC (centres undefined) [ethyl 2-ethoxy-3-(4-(2-(6-((hydroxyimino)(phenyl)methyl)-4,4-dimethyl-3,4-dihydroquinolin-1(2H)-yl)ethoxy)phenyl)propanoate] |
